Measurements as given in the supplement of paper PMC11208160.

Assay: recombinant UMI read abundance after kanamycin selection (control-corrected) (log10(CPM+1)); higher = more efficient recombination; extreme values may be limits of the assay; sequences stand for … in AGTGCAGAGAAAATCGGCCAGTTTTCTCTGCCTGCAGTCCGCATGCCGTGGGACCCCTTGGGTTCTAACCTGTTGCCTAGATTTATGCAGCGGACTGCCTTTCTCCCAAAGTGATAAACCGG…AGGTTGGTTTCACT; site = the 11-nt donor
Outline: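 Under IPTG (0.07 mM) plus kanamycin, or without selection, Escherichia coli carrying a UMI-tagged donor and donor-binding-loop pair library and a target plasmid for the IS621 bridge recombinase were plated in two replicates. Recombinant UMIs were PCR-amplified across the donor–target junction and sequenced. Counts were converted to CPM, averaged over replicates, scaled by control-derived factors and reported as log10(CPM+1).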
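Further: IS621 bridge recombinase in Escherichia coli cells against a fixed T5 target plasmid.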

Row | Sequence | recombinant UMI read abundance (log10)
1 | AAGCACGCATGGACCGGTTTTCCCGGTAATCCGTATTTGCG (site AAGCACGCTCC) | 0.223
2 | CAATGCGCATGGACCGGTTTTCCCGGTAATCCGTATTTGAA (site CAATGCTCTTT) | 0.823
3 | CAATTCCCATGGACCGGTTTTCCCGGTAATCCGTATTTGCT (site CCATTCCCTAG) | 1.17
4 | AGGAAGGCATGGACCGGTTTTCCCGGTAATCCGTATTTGCT (site AGCAAGGCTAG) | 0.362
5 | TATAAAGCATGGACCGGTTTTCCCGGTAATCCGTATTTGGA (site TATAAAGCTTC) | 0.646
6 | CCCAACACATGGACCGGTTTTCCCGGTAATCCGTATTTGTA (site CCCCACACTTA) | 0.0125
7 | GACCACCCATGGACCGGTTTTCCCGGTAATCCGTATTTGTT (site GACCACCCTAA) | 0.0158
8 | GAGCTCACATGGACCGGTTTTCCCGGTAATCCGTATTTGAT (site GAGCTCACTAG) | 0.209
9 | GTCCTTACATGGACCGGTTTTCCCGGTAATCCGTATTTGAG (site GTCCTTACTCT) | 0.376
10 | GTCTATACATGGACCGGTTTTCCCGGTAATCCGTATTTGAC (site CTCTATACTGT) | 0.0424
11 | AATGTAACATGGACCGGTTTTCCCGGTAATCCGTATTTGGT (site AATGTAACTAG) | 0
12 | CCGTTAGCATGGACCGGTTTTCCCGGTAATCCGTATTTGTC (site CCGTTAGCTTA) | 0.396
13 | TAGCATACATGGACCGGTTTTCCCGGTAATCCGTATTTGCA (site TAGGATACTTG) | 0
14 | CCCAATTCATGGACCGGTTTTCCCGGTAATCCGTATTTGCC (site ACCAATTCTGG) | 0
15 | GTCGTTGCATGGACCGGTTTTCCCGGTAATCCGTATTTGAA (site GTCGTTGCTTT) | 2.14
16 | ATGACGGCATGGACCGGTTTTCCCGGTAATCCGTATTTGAG (site ATGACGGCTCT) | 1.39
17 | AGGGAACCATGGACCGGTTTTCCCGGTAATCCGTATTTGAT (site CGGGAACCTAT) | 0
18 | CTAGTATCATGGACCGGTTTTCCCGGTAATCCGTATTTGAC (site ACAGTATCTGT) | 0.654
19 | CTTTATACATGGACCGGTTTTCCCGGTAATCCGTATTTGTT (site CTTTATACTAA) | 0.121
20 | GAACTTGCATGGACCGGTTTTCCCGGTAATCCGTATTTGAC (site CTTACCACTAA) | 0.0118
21 | TCAGAGACATGGACCGGTTTTCCCGGTAATCCGTATTTGCG (site CCAGAGACTCG) | 1.66
22 | CAACCCGCATGGACCGGTTTTCCCGGTAATCCGTATTTGTT (site CAACCCGCTAA) | 1.49
23 | GGTCCAACATGGACCGGTTTTCCCGGTAATCCGTATTTGTT (site GGTCCAACTAA) | 0.0107
24 | GAACAATCATGGACCGGTTTTCCCGGTAATCCGTATTTGCC (site GAACAATCTGG) | 1.67
25 | ATCCAAGCATGGACCGGTTTTCCCGGTAATCCGTATTTGAC (site ATCCAAGCTGT) | 1.73

Row | Sequence | recombinant UMI read abundance (log10)
26 | GGCCACCCATGGACCGGTTTTCCCGGTAATCCGTATTTGGT (site GGCCACCCTAC) | 0.00471
27 | AGCCTGGCATGGACCGGTTTTCCCGGTAATCCGTATTTGTT (site AGCCTTGCTAA) | 0.0159
28 | GAGGAGGCATGGACCGGTTTTCCCGGTAATCCGTATTTGTG (site GGGGAGGCTCA) | 0.0134
29 | CGTGGAACATGGACCGGTTTTCCCGGTAATCCGTATTTGTT (site TGTGGAACTAA) | 0.0144
30 | ATCCTTCCATGGACCGGTTTTCCCGGTAATCCGTATTTGCC (site ATCCTTCCTGG) | 0
31 | CGGAATTCATGGACCGGTTTTCCCGGTAATCCGTATTTGTT (site CGGAATGCTAA) | 0.00572
32 | TCCCATACATGGACCGGTTTTCCCGGTAATCCGTATTTGGC (site TCCCATACTGC) | 0
33 | TACGAATCATGGACCGGTTTTCCCGGTAATCCGTATTTGCG (site TAAGAATCTCG) | 0
34 | GACACACCATGGACCGGTTTTCCCGGTAATCCGTATTTGGT (site GACACACCTAC) | 0.00264
35 | CGTCTCTCATGGACCGGTTTTCCCGGTAATCCGTATTTGTA (site CTTCTCTCTTA) | 1.33
36 | TCACACTCATGGACCGGTTTTCCCGGTAATCCGTATTTGCA (site TCAGACTCTTG) | 0
37 | TGATCGACATGGACCGGTTTTCCCGGTAATCCGTATTTGTT (site CGATCGACTAA) | 0.0214
38 | CACGACACATGGACCGGTTTTCCCGGTAATCCGTATTTGTG (site CACGACACTCA) | 1.41
39 | TACTTGACATGGACCGGTTTTCCCGGTAATCCGTATTTGCT (site TACGTGACTAG) | 0.16
40 | GTTGTTCCATGGACCGGTTTTCCCGGTAATCCGTATTTGGT (site GTTGTTACTAC) | 0.00857
41 | TCGGATACATGGACCGGTTTTCCCGGTAATCCGTATTTGCC (site TCGGATACTGG) | 0.615
42 | GGCCTTTCATGGACCGGTTTTCCCGGTAATCCGTATTTGAC (site AGCCTTTCTGT) | 0
43 | CTAGTATCATGGACCGGTTTTCCCGGTAATCCGTATTTGAC (site CTGGTATCTGT) | 0
44 | CAGTTGGCATGGACCGGTTTTCCCGGTAATCCGTATTTGGA (site CACTTGGCTTC) | 0.076
45 | CAATTCCCATGGACCGGTTTTCCCGGTAATCCGTATTTGCT (site CAAATCCCTAG) | 0.763
46 | ATTGTGACATGGACCGGTTTTCCCGGTAATCCGTATTTGGT (site ATTGTGACTAC) | 0.925
47 | TGGCGGGCATGGACCGGTTTTCCCGGTAATCCGTATTTGGC (site TGGCAGGCTGC) | 1.38
48 | TCAAATTCATGGACCGGTTTTCCCGGTAATCCGTATTTGCC (site TCCAATTCTGG) | 0
49 | CTAGTATCATGGACCGGTTTTCCCGGTAATCCGTATTTGAC (site GTTGTATCTGT) | 0.0569
50 | GCGCTAACATGGACCGGTTTTCCCGGTAATCCGTATTTGAC (site GCGCTAACTGT) | 2.61

Row | Sequence | recombinant UMI read abundance (log10)
51 | GTAAGGCCATGGACCGGTTTTCCCGGTAATCCGTATTTGAC (site GTAAGGCCTGT) | 0
52 | GCCTAGACATGGACCGGTTTTCCCGGTAATCCGTATTTGGG (site CCCTAGACTCC) | 0.0341
53 | CTGCTGACATGGACCGGTTTTCCCGGTAATCCGTATTTGAT (site CTGCTGACTAT) | 2.13
54 | CTAGTATCATGGACCGGTTTTCCCGGTAATCCGTATTTGAC (site CTAGTACCTGC) | 0
55 | TGAAAGACATGGACCGGTTTTCCCGGTAATCCGTATTTGTA (site TGAAAGACTTA) | 2.37
56 | AGTGCTCCATGGACCGGTTTTCCCGGTAATCCGTATTTGAA (site AGTGCTCCTTT) | 0.416
57 | AACTAGACATGGACCGGTTTTCCCGGTAATCCGTATTTGAG (site AACTAGACTCT) | 1.48
58 | ATCAGGCCATGGACCGGTTTTCCCGGTAATCCGTATTTGAG (site ATCAGGCCTCT) | 0
59 | CGGGAGTCATGGACCGGTTTTCCCGGTAATCCGTATTTGCA (site CGGGAGTCTGG) | 1.15
60 | ATCTATACATGGACCGGTTTTCCCGGTAATCCGTATTTGAC (site ATCTATACTCT) | 0.011
61 | TTTCCGGCATGGACCGGTTTTCCCGGTAATCCGTATTTGCT (site TTTGCGGCTAG) | 0.00591
62 | CCTCTCTCATGGACCGGTTTTCCCGGTAATCCGTATTTGTA (site CATCTCTCTTA) | 0.00925
63 | CGCTGTACATGGACCGGTTTTCCCGGTAATCCGTATTTGCT (site CGCAGTACTAG) | 0
64 | GACTTGGCATGGACCGGTTTTCCCGGTAATCCGTATTTGAA (site GACTTGGCTTT) | 0.93
65 | CGCGTCTCATGGACCGGTTTTCCCGGTAATCCGTATTTGTA (site CGCGTCTCTTA) | 3.26
66 | ACATTTACATGGACCGGTTTTCCCGGTAATCCGTATTTGTG (site ACATGTACTCA) | 0.287
67 | AGTCAGCCATGGACCGGTTTTCCCGGTAATCCGTATTTGGA (site AGTCAGCCTTC) | 0.0114
68 | CCCACGCCATGGACCGGTTTTCCCGGTAATCCGTATTTGTA (site ACCACGCCTTA) | 0.00406
69 | CCCCACACATGGACCGGTTTTCCCGGTAATCCGTATTTGTC (site CCCCACACTGA) | 2.39
70 | TTTGGGGCATGGACCGGTTTTCCCGGTAATCCGTATTTGCT (site TTTGAGGCTAG) | 0.621
71 | CTAGTATCATGGACCGGTTTTCCCGGTAATCCGTATTTGAC (site CTAATATCTGA) | 0
72 | CTCTACACATGGACCGGTTTTCCCGGTAATCCGTATTTGGT (site CTCTACACTAG) | 0.21
73 | CTCCGTACATGGACCGGTTTTCCCGGTAATCCGTATTTGAG (site CTCCCTACTCT) | 0.0126
74 | TCCTGAACATGGACCGGTTTTCCCGGTAATCCGTATTTGCT (site TCCTGAACTAG) | 0
75 | CAAGCAGCATGGACCGGTTTTCCCGGTAATCCGTATTTGTT (site CAAGCAGCTAC) | 0.0209
